Counter-ions that a name gives are not always drawn.

What is called inhibition is the relative decrease from the control value, in per cent. In general, IC50 refers to the concentration that inhibits the measured activity by half. Low values mean inhibition by little substance, high ones a need for much substance.

For one assay, the target named is T1, canine TRPM8 (Canis lupus familiaris, UniProt Q1A7N1).
T1 construct: expressed in transfected cells
Description: In Vitro Canine TRPM8 Functional Assay (icilin-induced intracellular Ca2+ fluorescence, FLIPR/FDSS). The class given is cell-based. The conditions noted are these: HEK293 cells stably expressing canine TRPM8; for inhibition at 0.2 µM: 0.2 μM test compound, icilin challenge; for IC50: icilin challenge (~80% maximal response), eight-point dose-response. How it is done:
The functional activity of representative compounds of the formula (I) of the present invention were measured by measuring changes in intracellular calcium concentration using a Ca^2+-sensitive fluorescent dye. The changes in fluorescent signal were monitored by a fluorescence plate reader, either a FLIPR™ (Molecular Devices) or FDSS (Hamamatsu).
HEK293 cells stably expressing canine TRPM8 were routinely grown as monolayers in Dulbecco's minimum essential medium supplemented with 10% FBS, 2 mM L-glutamine, 100 units/mL penicillin, 100 ug/mL streptomycin and 400 μg/mL G418. Cells were maintained in 5% CO2 at 37° C. At 24 hrs prior to assay, cells were seeded in black wall, clear-base poly-D-lysine coated 384-well plates (BD Biosciences, NJ, USA) at a density of 5,000 cells per well in culture medium and grown overnight in 5% CO2 at 37° C. On assay day, growth media was removed and cells were loaded with Calcium 3 Dye (Molecular Devices) for 35 min at 37° C., under 5% CO2 and then for 25 min at room temperature and atmosphere. Subsequently, cells were tested for agonist-induced increases in intracellular Ca^2+ levels using FLIPR™ or FDSS. Cells were challenged with compounds of the formula (I) (at varying concentrations) and intracellular Ca^2+ was measured for 5 min prior to the addition of icilin to all wells to achieve a final concentration that produces approximately an 80% maximal response.
Basal FI was subtracted prior to normalizing data to percent of maximal response. Curves were generated using the average of quadruplicate wells for each data point, were analyzed using nonlinear regression of either sigmoidal dose response or sigmoidal dose response (variable slope). Finally, the EC50 and IC50 values were calculated with the best-fit dose curve determined by GraphPad Prism

In assay [1] the test system is Male Sprague Dawley rats. Kind of assay: Inhibition of Icilin-Induced “Wet-Dog” Shakes in Rats. The following applies: 60 min before icilin 3.0 mg/kg i.p., rat. The class given is in vivo. The procedure:
Male Sprague Dawley rats ([…], Charles River Labs, n=6-9/treatment) were used to evaluate the ability of test compounds to block icilin-induced “wet-dog” shakes (WDS). The test compound was administered in 10% hydroxypropyl-β-cyclodextrin (HP β CD), p.o., 60 minutes before icilin. Icilin was then administered in 10% solutol/H2O, at 3.0 mg/kg, i.p. and spontaneous “wet-dog” shakes were counted over a 10 minute period, 10 minutes following the icilin injection.

In assay [2] the test system is Male Sprague Dawley rats. Kind of assay: Chronic Constriction Injury (CCI)-Induced Model of Neuropathic Pain - Acetone-Induced Hypersensitivity. The class given is in vivo. The conditions noted are these: 10 mg/kg p.o. in 10% HP β CD, rat. From the text: Male Sprague Dawley rats (225-450 g; n=5-8/treatment) were used to evaluate the ability of test compounds to reverse CCI-induced cold hypersensitivity. Four loose ligatures of 4-0 chromic gut were surgically placed around the left sciatic nerve under inhalation anesthesia as described by Bennett et al (BENNETT G. J. et al., “A Peripheral Mononeuropathy in Rat that Produces Disorders of Pain Sensation Like Those Seen in Man”, Pain, 1988, pp. 87-107, Vol 33(1)). Fourteen to 35 days following CCI surgery, subjects were placed in elevated observation chambers containing wire mesh floors and five applications of acetone (0.05 mL/application separated by approximately 5 minutes) were spritzed onto the plantar surface of the paw using a multidose syringe. An abrupt withdrawal or lifting of the paw was considered a positive response. The number of positive responses was recorded for each rat over the five trials. Following baseline withdrawal determinations, test compounds were administered in 10% hydroxypropyl-β-cyclodextrin (HP β CD), p.o. The number of withdrawals was re-determined at 2, 3 and 4 hours after compound administration.

T1 sequence (Q1A7N1 1-1104): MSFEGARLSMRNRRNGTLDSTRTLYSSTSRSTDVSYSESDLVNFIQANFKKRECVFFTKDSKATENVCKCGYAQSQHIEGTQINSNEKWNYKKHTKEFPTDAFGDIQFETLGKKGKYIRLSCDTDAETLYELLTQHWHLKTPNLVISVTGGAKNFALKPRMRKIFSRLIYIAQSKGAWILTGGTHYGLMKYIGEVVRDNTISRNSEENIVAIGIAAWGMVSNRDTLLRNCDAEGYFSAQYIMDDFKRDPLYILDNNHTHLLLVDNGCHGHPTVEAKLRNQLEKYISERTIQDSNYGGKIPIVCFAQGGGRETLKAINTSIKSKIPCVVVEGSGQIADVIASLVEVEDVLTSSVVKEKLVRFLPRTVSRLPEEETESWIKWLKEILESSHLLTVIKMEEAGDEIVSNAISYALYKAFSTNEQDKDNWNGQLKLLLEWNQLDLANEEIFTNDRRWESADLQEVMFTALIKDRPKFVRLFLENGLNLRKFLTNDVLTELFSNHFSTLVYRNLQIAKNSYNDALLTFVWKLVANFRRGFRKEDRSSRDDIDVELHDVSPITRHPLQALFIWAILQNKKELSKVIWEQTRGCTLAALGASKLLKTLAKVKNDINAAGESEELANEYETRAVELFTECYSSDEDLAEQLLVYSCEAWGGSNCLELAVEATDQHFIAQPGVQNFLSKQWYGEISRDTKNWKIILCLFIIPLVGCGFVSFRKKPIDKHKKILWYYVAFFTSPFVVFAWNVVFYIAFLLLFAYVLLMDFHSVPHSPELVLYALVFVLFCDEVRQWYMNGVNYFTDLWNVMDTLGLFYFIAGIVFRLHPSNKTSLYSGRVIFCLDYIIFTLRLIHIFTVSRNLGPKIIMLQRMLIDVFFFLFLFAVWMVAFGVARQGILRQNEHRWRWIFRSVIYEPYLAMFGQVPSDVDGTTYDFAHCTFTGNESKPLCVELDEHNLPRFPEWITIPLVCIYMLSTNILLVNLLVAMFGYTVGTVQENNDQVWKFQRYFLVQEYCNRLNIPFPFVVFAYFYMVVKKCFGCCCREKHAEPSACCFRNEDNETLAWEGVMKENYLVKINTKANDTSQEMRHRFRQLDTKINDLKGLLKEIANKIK

On to `FC(F)(F)Oc1ccccc1-c1ccc2[nH]c(/C=C/C3CCCCC3)nc2c1` [Compound 1, 2-(2-Cyclohexyl-vinyl)-5-(2-trifluoromethoxy-phenyl)-1H-benzimidazole hydrochloride salt], for which, on canine TRPM8, the inhibition at 0.2 µM was found to be 93% and the IC50 stood at 14 nM. Also, the “% Inhibition of icilin-induced “wet-dog” shakes” value with Male Sprague Dawley rats [1] (30 mg/kg p.o.) is reported as 48%.

`FC1(F)CCC(/C=C/c2nc3cc(-c4ccccc4C(F)(F)F)ccc3[nH]2)CC1` [Compound 30, 2-[2-(4,4-Difluoro-cyclohexyl)-vinyl]-5-(2-trifluoromethyl-phenyl)-1H-benzimidazole hydrochloride salt]: on canine TRPM8, the inhibition at 0.2 µM worked out at 102% and the IC50 stood at 3 nM. Besides, in the assay on Male Sprague Dawley rats [1] (10 mg/kg p.o.), the “% Inhibition of icilin-induced “wet-dog” shakes” value is reported as 98%.

`FC(F)(F)c1ccccc1-c1ccc2[nH]c(/C=C/C3CCOCC3)nc2c1` [Compound 50, (E)-2-[2-(Tetrahydro-pyran-4-yl)-vinyl]-5-(2-trifluoromethyl-phenyl)-1H-benzimidazole hydrochloride]: on canine TRPM8, the inhibition at 0.2 µM worked out at 101% and the IC50 was found to be 17 nM. In the assay with Male Sprague Dawley rats [1] (10 mg/kg p.o.), the “% Inhibition of icilin-induced “wet-dog” shakes” value was determined as 89%.

Turning to `FC(F)(F)c1cccc(C(F)(F)F)c1-c1ccc2[nH]c(/C=C/C3CCCCC3)nc2c1` [Compound 58, (E)-5-(2,6-Bis-trifluoromethyl-phenyl)-2-(2-cyclohexyl-vinyl)-1H-benzimidazole], on canine TRPM8, the inhibition at 0.2 µM was determined as 83% and the IC50 was determined as 9 nM. In the assay on Male Sprague Dawley rats [1] (10 mg/kg p.o.), the “% Inhibition of icilin-induced “wet-dog” shakes” value is 30%.

Regarding `Fc1cccc(OC(F)(F)F)c1-c1ccc2[nH]c(/C=C/C3CCCCC3)nc2c1` [Compound 59, (E)-2-(2-Cyclohexyl-vinyl)-5-(2-fluoro-6-trifluoromethoxy-phenyl)-1H-benzimidazole], at canine TRPM8, the inhibition at 0.2 µM worked out at 96% and half-maximal inhibition (IC50) required 6 nM. In the assay with Male Sprague Dawley rats [1] (10 mg/kg p.o.), the “% Inhibition of icilin-induced “wet-dog” shakes” value is reported as 75%.

For `FC(F)(F)c1ccccc1-c1ccc2[nH]c(/C=C/C34CCC(Br)(CC3)CC4)nc2c1` [Compound 70, (E)-2-[2-(4-Bromo-bicyclo[2.2.2]oct-1-yl)-vinyl]-5-(2-trifluoromethyl-phenyl)-1H-benzoimidazole], on canine TRPM8, the inhibition at 0.2 µM worked out at 97% and half-maximal inhibition (IC50) required 11 nM.

Turning to `Cl.FC(F)(F)c1ccccc1-c1ccc2[nH]c(/C=C/C3CCCCC3)nc2c1` [Compound 71, 2-(2-Cyclohexyl-vinyl)-5-(2-trifluoromethyl-phenyl)-1H-benzoimidazole hydrochloride], the inhibition at 0.2 µM at canine TRPM8 was found to be 94%. The compound also registered an IC50 on canine TRPM8 of 9 nM. In addition, the “% Inhibition of icilin-induced “wet-dog” shakes” value in the assay on Male Sprague Dawley rats [1] (30 mg/kg p.o.) is given as 90%. For the same compound, the “% Inhibition (acetone-evoked paw withdrawals, CCI)” value in the assay with Male Sprague Dawley rats [2] (2 h after administration) was 91%; with Male Sprague Dawley rats [2] (3 h after administration) it was 91%; with Male Sprague Dawley rats [2] (4 h after administration) it was 77%.
